From patent publication US20070110815A1, “Micronised azodicarbonamide, and the preparation and use thereof” (priority 2005, published 2007)

Experiments:
[1] = oral administration; cited from earlier work
[2] = tested on: reactivity of the respiratory tracts; assay: Reactivity of respiratory tracts in ovalbumin-sensitised rats; type: in vivo; conditions: sensitised Brown Norway rats, force feeding twice a day 125 and 250 mg/kg, day -1 to day 20, all doses of methacholine
Protocol: At day 0, Brown Norway rats (200-250 g) were sensitised by intraperitoneal administration (1 ml/rat) of ovalbumin (1 mg/ml) mixed with aluminium hydroxide (100 mg/ml).
In this experiment, micronised ADA according to the invention is administered to rats by force feeding in the form of a suspension in poloxamer 188. The administration takes place twice a day in doses of 125 and 250 mg/kg, from day −1 up to day 20.

[3] = water and organic solvents; cited from earlier work
[4] = Particle size analysis by laser diffraction during micronisation; type: physicochemical
Protocol: A thorough fragmentation of dry powder forming each of these batches is carried out, feeding them at a rate of 4 kg/h into a known dry powder disintegration device, for example into a device of the Alpine® 100 AFG Jet Mill model from Hosokawa Micron Group. This device comprises a cylindrical milling chamber with a conical bottom which is made of stainless steel coated with an elastomer. This chamber has a diameter of 100 mm and a volume of 800 cm^3. The particles to disintegrate are introduced into the chamber by an endless screw. Then the particles are projected against each other by compressed air jets from 3 air nozzles having a diameter of 2 mm which run into each other at the same point. The obtained air stream carries then the disintegrated particles at 50 bar towards a turbo-selecting device which is integrated within the milling chamber. In this example this turbo-selecting device has the shape of a squirrel-cage which has adjustable rotational speed of 5000 to 16000 rpm.
This device allows the exit of the particles smaller than a determined size, in this case <5 μm, and repulses into the milling chamber the particles having a greater size. The fine particles (searched size) which leave the milling chamber are collected for example by means of a cyclone.
The sizes of the particles were then analysed. In order to analyse the diameters use was made of a RODOS & RODOS/M dry powder dispersion device (from Sympatec GmbH) and a VIBRI vibratory powder feed tool (from Sympatec GmbH) with a HELOS laser diffraction system (from Sympatec GmbH). The powders analysed were fed at a rate of 35% of the maximum rate. On passing through an air jet, the powder is subjected to shearing forces of around 3.0 bar. Using a vacuum (90-100 mbar) they are then sucked into the path of a HE/NE laser beam. The diffraction of the laser beam by the particles creates a model which is measured and converted by computer into a particle size distribution using software associated with the HELOS system.

[5] = Particle size stability of micronised ADA in capsules on storage; type: physicochemical
Protocol: After having manufactured micronised ADA under the conditions of examples 1 and 2, a size distribution of the ADA crystals was obtained, as illustrated on the appended FIG. 2.
Thereafter the active substance was incorporated into capsules which have been stored for 11 months within a refrigerator at 8° C., in order to determine the stability of ADA according to the standards (International Harmonisation Conference: ICH).
The size of the ADA particles has been determined again at this moment as well as after 3 additional months within a stove at 25° C./60% humidity.

rats = assay: 28-day oral toxicity in rats; type: in vivo; conditions: daily 900, 150 and 25 mg/kg for 28 days, suspension in carboxymethylcellulose
Protocol: (§1) Tests were carried out on rats to which daily doses of 900, 150 and 25 mg of ADA according to the invention/kg of body weight were administered orally for 28 days. The ADA was in the form of a micronised powder according to the invention in suspension in carboxymethylcellulose. Likewise an identical test was carried out on dogs at daily doses for 28 days of 400, 100 and 25 mg of ADA according to the invention/kg of body weight.

dogs = assay: 28-day oral toxicity in dogs; type: in vivo
Protocol: as §1
On the dogs that received 400 mg/kg/day for 28 days, a histological examination was also carried out with dissection of the kidneys.

healthy male volunteers = assay: Examination of toxicity on human beings (urine examination by flow cytometry); type: in vivo; conditions: capsules, seven days, up to 6 g per day, limit of detection 2 μm
Protocol: “ESB free” gelatine-coated capsules containing a composition as described in example 4 were administered for seven days to healthy male volunteers at a dose ranging up to 6 g per day (single dose of 150 to 6,000 mg and repeated doses of 300 to 2,400 mg).
A urine examination was carried out using flow cytometry (limit of detection 2 μm).

[6] = Comparative examination of bioavailability (biurea in blood after force feeding); type: in vivo; conditions: mice, force feeding, 10, 5 and 1.25 mg/kg, 30 minutes after ingestion, suspension in CMC, FIG. 1
Protocol: 54 mice are randomly divided into 9 groups of 6 animals and receive a dose of ADA by force feeding.
The concentration of biurea, the only catabolite of ADA “in vivo” (Concise International Chemical Assessment Document 16; World Health Organisation: Geneva, 1999) in the blood serum (μg/ml) was determined 30 minutes after ingestion by means of a high-pressure liquid chromatography method. This concentration represents a measurement of the bioavailability of ADA in the organism.
Analysis of the plasma samples was carried out by high-pressure liquid chromatography, followed by mass spectrometry, in accordance with the standards of the “Food and Drug (USA) Administration May 2001: Guidance for Industry: Bioanalytical method validation” (lowest quantification limit (LOQ) of 0.20 μg/ml and linear method up to 20 μg/ml).

[7] = End of micronisation, listed as A
[8] = Middle of micronisation, listed as A
[9] = Start of micronisation, listed as A
[10] = End of micronisation, listed as B
[11] = Middle of micronisation, listed as B
[12] = Start of micronisation, listed as B
[13] = End of micronisation, listed as C
[14] = Middle of micronisation, listed as C
[15] = Start of micronisation, listed as C
[16] = Test date Aug. 7, 2005, 3 additional months at 25° C./60% humidity
[17] = Test date Jun. 20, 2004, after manufacture
[18] = Test date May 7, 2005, capsules stored 11 months in refrigerator at 8° C.

## NC(=O)N=NC(N)=O [ADA as commercially available, azodicarbonamide]
[1]
  Formation of biurea crystals in the urine: the formation of biurea crystals is quickly observed in the urine

## NC(=O)N=NC(N)=O [ADA, Azodicarbonamide]
[2]
  Inhibition of the increase in reactivity of the respiratory tracts caused by antigen attack: significant inhibition
[3]
  Solubility: not very soluble in water or in the majority of organic solvents

## NC(=O)N=NC(N)=O [Batch A, azodicarbonamide]
[4]; [7]
  Granulometry of particles during micronisation d10: 0.56 μm
  Granulometry of particles during micronisation d50: 1.51 μm
  Granulometry of particles during micronisation d90: 3.50 μm
[4]; [8]
  Granulometry of particles during micronisation d10: 0.56 μm
  Granulometry of particles during micronisation d50: 1.53 μm
  Granulometry of particles during micronisation d90: 3.55 μm
[4]; [9]
  Granulometry of particles during micronisation d10: 0.58 μm
  Granulometry of particles during micronisation d50: 1.61 μm
  Granulometry of particles during micronisation d90: 3.78 μm

## NC(=O)N=NC(N)=O [Batch B, azodicarbonamide]
[4]; [10]
  Granulometry of particles during micronisation d10: 0.59 μm
  Granulometry of particles during micronisation d50: 1.56 μm
  Granulometry of particles during micronisation d90: 3.68 μm
[4]; [11]
  Granulometry of particles during micronisation d10: 0.58 μm
  Granulometry of particles during micronisation d50: 1.59 μm
  Granulometry of particles during micronisation d90: 3.88 μm
[4]; [12]
  Granulometry of particles during micronisation d10: 0.58 μm
  Granulometry of particles during micronisation d50: 1.58 μm
  Granulometry of particles during micronisation d90: 3.71 μm

## NC(=O)N=NC(N)=O [Batch C, azodicarbonamide]
[4]; [13]
  Granulometry of particles during micronisation d10: 0.57 μm
  Granulometry of particles during micronisation d50: 1.58 μm
  Granulometry of particles during micronisation d90: 3.85 μm
[4]; [14]
  Granulometry of particles during micronisation d10: 0.57 μm
  Granulometry of particles during micronisation d50: 1.56 μm
  Granulometry of particles during micronisation d90: 3.69 μm
[4]; [15]
  Granulometry of particles during micronisation d10: 0.56 μm
  Granulometry of particles during micronisation d50: 1.47 μm
  Granulometry of particles during micronisation d90: 3.43 μm

## NC(=O)N=NC(N)=O [Batch K9J, azodicarbonamide]
[5]; [16]
  Particle sizes D10: 0.76 μm
  Particle sizes D50: 2.05 μm
[5]; [17]
  Particle sizes D10: 0.56 μm
  Particle sizes D50: 1.51 μm
[5]; [18]
  Particle sizes D10: 0.72 μm
  Particle sizes D50: 1.86 μm

## NC(=O)N=NC(N)=O [Batch K9K, azodicarbonamide]
[5]; [16]
  Particle sizes D10: 0.74 μm
  Particle sizes D50: 1.93 μm
[5]; [17]
  Particle sizes D10: 0.59 μm
  Particle sizes D50: 1.56 μm
[5]; [18]
  Particle sizes D10: 0.69 μm
  Particle sizes D50: 1.74 μm

## NC(=O)N=NC(N)=O [Batch K9L, azodicarbonamide]
[5]; [16]
  Particle sizes D10: 0.76 μm
  Particle sizes D50: 2.08 μm
[5]; [17]
  Particle sizes D10: 0.57 μm
  Particle sizes D50: 1.58 μm
[5]; [18]
  Particle sizes D10: 0.72 μm
  Particle sizes D50: 1.88 μm

## NC(=O)N=NC(N)=O [azodicarbonamide]
rats
  Adverse effect: In neither of the two tests was any adverse effect observed
[5]; no additive, 11 months 8° C. plus 3 months 25° C./60% humidity, FIG. 3
  Stability of particle size on storage: stability of ADA according to the invention clearly results
dogs; 400 mg/kg/day for 28 days
  Biurea crystals in kidneys (histological examination): no biurea crystals were observed
dogs; oral, daily 400, 100 and 25 mg/kg for 28 days
  Adverse effect: In neither of the two tests was any adverse effect observed
Healthy male volunteers
  Kidney stones or cylinders in urine: No kidney stones or cylinders were observed
[6]
  Bioavailability of ADA in the blood (concentration of biurea): appreciably better than the non-micronised ADA
[6]; listed as ADA according to the invention
  Bioavailability of ADA in the blood (concentration of biurea): even better bioavailability than completely dissolved ADA
